EC50 data for 27 compounds are collected here from patent US11332463B2, “Spiropiperidine allosteric modulators of nicotinic acetylcholine receptors” (Merck Sharp & Dohme Corp., priority 2018, dated 2022).

SMILES strings stand for the structures.

One experiment deals with T1, human α7 nicotinic acetylcholine receptor (HEK cell line stably expressing human RIC-3 and human α7) (Homo sapiens, UniProt P36544).
T1 construct: host or cells: HEK cell line (PrecisION hnAChR α7/RIC-3)
T1 sequence (P36544 23-502): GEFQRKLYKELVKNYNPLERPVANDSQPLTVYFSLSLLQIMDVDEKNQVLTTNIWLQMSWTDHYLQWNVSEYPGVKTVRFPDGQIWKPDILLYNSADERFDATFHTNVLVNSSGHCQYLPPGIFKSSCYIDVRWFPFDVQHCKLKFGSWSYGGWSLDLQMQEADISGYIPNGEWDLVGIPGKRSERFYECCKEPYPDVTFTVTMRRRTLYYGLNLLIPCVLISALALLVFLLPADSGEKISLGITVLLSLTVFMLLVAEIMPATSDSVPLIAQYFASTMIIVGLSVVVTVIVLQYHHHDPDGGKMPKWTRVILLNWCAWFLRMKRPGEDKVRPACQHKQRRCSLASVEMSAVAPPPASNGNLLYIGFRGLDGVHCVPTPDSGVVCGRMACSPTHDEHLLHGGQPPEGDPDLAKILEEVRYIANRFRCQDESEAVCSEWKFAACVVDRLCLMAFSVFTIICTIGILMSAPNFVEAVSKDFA
The experiment is described as follows: Automated patch-clamp electrophysiology functional assay (Assay A), IonFlux HT, whole-cell population patch. In kind it is cell-based. Conditions: HEK cells expressing human α7/RIC-3; test compound with or without 40 μM acetylcholine; holding potential −60 mV; room temperature; read-out: α7 nAChR Potency.
As to `NS(=O)(=O)N1CCC2(CC1)[C@H](c1noc(-c3ccnc(OC4CC4)c3)n1)C2(F)F` [Example E33], the EC50 lay in the range of 100 to 500 nM.

On to `NS(=O)(=O)N1CCC2(CC1)[C@H](c1noc(-c3ccnn3C3CC3)n1)C2(F)F` [Example E34], for which the EC50 lay within 100 to 500 nM.

Take `CC(C)(C)n1nccc1-c1nc([C@@H]2C(F)(F)C23CCN(S(N)(=O)=O)CC3)no1` [Example E35]: the EC50 was in the range of 100 to 500 nM.

Turning to `Cc1cnc2cc(-c3nc([C@@H]4C(F)(F)C45CCN(S(N)(=O)=O)CC5)no3)ccn12` [Example E36], the EC50 was 500 to 5000 nM.

With `CCn1cc(-c2nc([C@@H]3C(F)(F)C34CCN(S(N)(=O)=O)CC4)no2)c(C2CC2)n1` [Example E37], the EC50 is < 100 nM.

As for `Cn1ncc(-c2nc([C@@H]3C(F)(F)C34CCN(S(N)(=O)=O)CC4)no2)c1C(F)(F)F` [Example E38], the EC50 was 100 to 500 nM.

Consider `CC(C)(C)n1ncc(-c2nc([C@@H]3C(F)(F)C34CCN(S(N)(=O)=O)CC4)no2)c1C(F)(F)F` [Example E39], for which the EC50 was 100 to 500 nM.

Turning to `NS(=O)(=O)N1CCC2(CC1)[C@H](c1noc(-c3cnn4c3CCCC4)n1)C2(F)F` [Example E40], the EC50 lay in the range of 500 to 5000 nM.

As for `Cc1n[nH]c(C2CC2)c1-c1nc([C@@H]2C(F)(F)C23CCN(S(N)(=O)=O)CC3)no1` [Example E41], the EC50 was < 100 nM.

As for `NS(=O)(=O)N1CCC2(CC1)[C@H](c1noc(-c3cnn4c3CCC4)n1)C2(F)F` [Example E42], the EC50 lay in the range of 500 to 5000 nM.

In the case of `Cn1nccc1-c1nc([C@@H]2C(F)(F)C23CCN(S(N)(=O)=O)CC3)no1` [Example E43], the EC50 fell in the range of 100 to 500 nM.

For `Cn1nc(-c2nc([C@@H]3C(F)(F)C34CCN(S(N)(=O)=O)CC4)no2)c2c1CCC2` [Example E44], the EC50 fell in the range of 100 to 500 nM.

Turning to `Cn1nc(C(F)(F)F)cc1-c1nc([C@@H]2C(F)(F)C23CCN(S(N)(=O)=O)CC3)no1` [Example E45], the EC50 was in the range of 500 to 5000 nM.

Consider `NS(=O)(=O)N1CCC2(CC1)[C@H](c1noc(-c3cc(C(F)(F)F)n(C4CC4)n3)n1)C2(F)F` [Example E46], for which the EC50 lay within 500 to 5000 nM.

As to `NS(=O)(=O)N1CCC2(CC1)[C@H](c1noc(-c3c4c(nn3C3CC3)CCCC4)n1)C2(F)F` [Example E47], the EC50 fell in the range of 100 to 500 nM.

Turning to `NS(=O)(=O)N1CCC2(CC1)[C@H](c1noc(-c3c(C(F)(F)F)cnn3C3CC3)n1)C2(F)F` [Example E48], the EC50 was < 100 nM.

For `NS(=O)(=O)N1CCC2(CC1)[C@H](c1noc(-c3ccnnc3C3CC3)n1)C2(F)F` [Example E49], the EC50 was 100 to 500 nM.

Take `NS(=O)(=O)N1CCC2(CC1)C[C@H]2c1noc(-c2ccnnc2C2CC2)n1` [Example E50]: the EC50 fell in the range of 500 to 5000 nM.

For `CC(C)Oc1cc(-c2nc([C@@H]3C(F)(F)C34CCN(S(N)(=O)=O)CC4)no2)ccn1` [Example E51], the EC50 lay in the range of 500 to 5000 nM.

As for `Cc1cnn(C)c1-c1nc([C@@H]2CC23CCN(S(N)(=O)=O)CC3)no1` [Example E52], the EC50 is 500 to 5000 nM.

Take `NS(=O)(=O)N1CCC2(CC1)[C@H](c1noc(-c3cnn4c3CSC4)n1)C2(F)F` [Example E53]: the EC50 fell in the range of 500 to 5000 nM.

On to `Cc1c(-c2nc([C@@H]3C(F)(F)C34CCN(S(N)(=O)=O)CC4)no2)c(C(F)(F)F)nn1C1CC1` [Example E54], for which the EC50 fell in the range of 100 to 500 nM.

Consider `NS(=O)(=O)N1CCC2(CC1)[C@H](c1noc(-c3c(C4CC4)noc3C(F)(F)F)n1)C2(F)F` [Example E55], for which the EC50 is < 100 nM.

For the compound `NS(=O)(=O)N1CCC2(CC1)[C@H](c1noc(-c3cccnc3)n1)C2(F)F` [Example E56], the EC50 lay within 500 to 5000 nM.

As to `NS(=O)(=O)N1CCC2(CC1)C[C@H]2c1noc(-c2cnccc2C(F)(F)F)n1` [Example E57], the EC50 was 500 to 5000 nM.

In the case of `NS(=O)(=O)N1CCC2(CC1)C[C@H]2c1noc(-c2cccnc2C(F)(F)F)n1` [Example E58], the EC50 fell in the range of 500 to 5000 nM.

For `NS(=O)(=O)N1CCC2(CC1)C[C@H]2c1noc(-c2cccnc2OCC(F)(F)F)n1` [Example E59], the EC50 lay within 100 to 500 nM.

Staying with this experiment, now noted: automated patch-clamp electrophysiology functional assay (Assay A); read-out: α7 nAChR EC50.
For `NS(=O)(=O)N1CCC2(CC1)[C@H](c1noc(-c3ccnc(OC4CC4)c3)n1)C2(F)F` [Example E33], the EC50 was 470 nM.

For the compound `NS(=O)(=O)N1CCC2(CC1)[C@H](c1noc(-c3ccnn3C3CC3)n1)C2(F)F` [Example E34], the EC50 stood at 130 nM.

Regarding `CC(C)(C)n1nccc1-c1nc([C@@H]2C(F)(F)C23CCN(S(N)(=O)=O)CC3)no1` [Example E35], the EC50 worked out at 250 nM.

For the compound `Cc1cnc2cc(-c3nc([C@@H]4C(F)(F)C45CCN(S(N)(=O)=O)CC5)no3)ccn12` [Example E36], the EC50 came out at 1100 nM.

As for `CCn1cc(-c2nc([C@@H]3C(F)(F)C34CCN(S(N)(=O)=O)CC4)no2)c(C2CC2)n1` [Example E37], the EC50 is 78 nM.

With `Cn1ncc(-c2nc([C@@H]3C(F)(F)C34CCN(S(N)(=O)=O)CC4)no2)c1C(F)(F)F` [Example E38], the EC50 amounted to 270 nM.

With `CC(C)(C)n1ncc(-c2nc([C@@H]3C(F)(F)C34CCN(S(N)(=O)=O)CC4)no2)c1C(F)(F)F` [Example E39], the EC50 was found to be 150 nM.

As to `NS(=O)(=O)N1CCC2(CC1)[C@H](c1noc(-c3cnn4c3CCCC4)n1)C2(F)F` [Example E40], the EC50 worked out at 840 nM.

As to `Cc1n[nH]c(C2CC2)c1-c1nc([C@@H]2C(F)(F)C23CCN(S(N)(=O)=O)CC3)no1` [Example E41], the EC50 stood at 15 nM.

With `NS(=O)(=O)N1CCC2(CC1)[C@H](c1noc(-c3cnn4c3CCC4)n1)C2(F)F` [Example E42], the EC50 turned out to be 1100 nM.

As for `Cn1nccc1-c1nc([C@@H]2C(F)(F)C23CCN(S(N)(=O)=O)CC3)no1` [Example E43], the EC50 was 500 nM.

Regarding `Cn1nc(C(F)(F)F)cc1-c1nc([C@@H]2C(F)(F)C23CCN(S(N)(=O)=O)CC3)no1` [Example E45], the EC50 is 550 nM.

As to `NS(=O)(=O)N1CCC2(CC1)[C@H](c1noc(-c3cc(C(F)(F)F)n(C4CC4)n3)n1)C2(F)F` [Example E46], the EC50 was 510 nM.

On to `NS(=O)(=O)N1CCC2(CC1)[C@H](c1noc(-c3c(C(F)(F)F)cnn3C3CC3)n1)C2(F)F` [Example E48], for which the EC50 turned out to be 60 nM.

In the case of `NS(=O)(=O)N1CCC2(CC1)[C@H](c1noc(-c3ccnnc3C3CC3)n1)C2(F)F` [Example E49], the EC50 worked out at 270 nM.

As for `NS(=O)(=O)N1CCC2(CC1)C[C@H]2c1noc(-c2ccnnc2C2CC2)n1` [Example E50], the EC50 was determined as 1400 nM.

Turning to `CC(C)Oc1cc(-c2nc([C@@H]3C(F)(F)C34CCN(S(N)(=O)=O)CC4)no2)ccn1` [Example E51], the EC50 is 530 nM.

Consider `Cc1cnn(C)c1-c1nc([C@@H]2CC23CCN(S(N)(=O)=O)CC3)no1` [Example E52], for which the EC50 came to 1700 nM.

Take `NS(=O)(=O)N1CCC2(CC1)[C@H](c1noc(-c3cnn4c3CSC4)n1)C2(F)F` [Example E53]: the EC50 turned out to be 1200 nM.

As to `Cc1c(-c2nc([C@@H]3C(F)(F)C34CCN(S(N)(=O)=O)CC4)no2)c(C(F)(F)F)nn1C1CC1` [Example E54], the EC50 stood at 500 nM.

On to `NS(=O)(=O)N1CCC2(CC1)[C@H](c1noc(-c3c(C4CC4)noc3C(F)(F)F)n1)C2(F)F` [Example E55], for which the EC50 is 30 nM.

`NS(=O)(=O)N1CCC2(CC1)[C@H](c1noc(-c3cccnc3)n1)C2(F)F` [Example E56]: the EC50 worked out at 2600 nM.

Regarding `NS(=O)(=O)N1CCC2(CC1)C[C@H]2c1noc(-c2cccnc2C(F)(F)F)n1` [Example E58], the EC50 worked out at 3400 nM.

For the compound `NS(=O)(=O)N1CCC2(CC1)C[C@H]2c1noc(-c2cccnc2OCC(F)(F)F)n1` [Example E59], the EC50 amounted to 220 nM.
